Measurements as given in patent publication US11339419B2, “Scavenger protein(s) for improved preservation of analyte detection sensor(s) and method(s) of use thereof” (Siemens Healthcare Diagnostics Inc., priority 2017, dated 2022).
Values joined by “and” are separate entries in the source; they are usually repeats but may differ in a detail not shown here. Equal entries are not always repeated.

Key:
[1] = system: creatininase (Toyobo); experiment: Toyobo Creatininase Enzyme Absorbance with BSA and MIT; type: biochemical
From the text: Absorbance measurements of the creatininase enzyme(s) were taken via spectrophotometer for each aqueous solution (represented as columns 1-5 in Tables 5-8—column 6 is a blank), the absorbance being directly proportional to the enzyme activity being measured-which for Tables 5-8 is creatininase enzyme activity. Accordingly, the higher the absorbance measurement, the higher the enzyme activity of creatininase. Columns 7-11 represent five replicate readings in which the solution only contains BSA (i.e., there is no biocide(s) present in the solution). In addition, the mean values, standard deviations, and coefficients of variation are all presented for the enzyme activity/absorbance of each aqueous solution. All measurements were taken at 37° C.
As depicted in Table 6, creatininase (commercially offered for sale by Toyobo) enzyme activity is measured against various concentrations of MIT (biocide) and BSA (scavenger protein) over a period of 14 days (with absorbance measurement taken at 0, 4, and 14 days) for five different aqueous solutions (represented as columns 1-5—column 6 is a blank).

[2] = system: sarcosine oxidase (BBI Solutions); experiment: BBI Solutions Sarcosine Oxidase Enzyme Absorbance with BSA and Proclin 300; type: biochemical
From the text: Absorbance measurements of the sarcosine oxidase enzyme(s) were taken via spectrophotometer for each aqueous solution (represented as columns 1-5 in Tables 1-4—column 6 is a blank), the absorbance being directly proportional to the enzyme activity being measured-which for Tables 1-4 is sarcosine oxidase enzyme activity. Accordingly, the higher the absorbance measurement, the higher the enzyme activity of sarcosine oxidase. […] In addition, the mean values, standard deviations, and coefficients of variation are also presented for the enzyme activity/absorbance of each aqueous solution. All measurements were taken at 37° C.

[3] = Day 4, 100 ppm MIT, 5 mg/mL BSA
[4] = Day 4, 100 ppm MIT, 25 mg/mL BSA
[5] = Day 4, 100 ppm MIT, 50 mg/mL BSA
[6] = Day 14, 50 ppm MIT, 5 mg/mL BSA
[7] = Day 14, 50 ppm MIT, 25 mg/mL BSA
[8] = Day 14, 50 ppm MIT, 50 mg/mL BSA
[9] = Day 14, 100 ppm MIT, 5 mg/mL BSA
[10] = Day 14, 100 ppm MIT, 25 mg/mL BSA
[11] = Day 14, 100 ppm MIT, 50 mg/mL BSA
[12] = Day 0, BSA 5 mg/mL only, no Proclin 300, line of 0.7% Proclin 300
[13] = Day 0, BSA 5 mg/mL only, no Proclin 300, line of 1.4% Proclin 300
[14] = Day 0, BSA 25 mg/mL only, no Proclin 300, line of 0.7% Proclin 300
[15] = Day 0, BSA 25 mg/mL only, no Proclin 300, line of 1.4% Proclin 300
[16] = Day 0, BSA 50 mg/mL only, no Proclin 300, line of 0.7% Proclin 300
[17] = Day 0, BSA 50 mg/mL only, no Proclin 300, line of 1.4% Proclin 300
[18] = Day 4, BSA 5 mg/mL only, no Proclin 300, line of 0.7% Proclin 300
[19] = Day 4, BSA 5 mg/mL only, no Proclin 300, line of 1.4% Proclin 300
[20] = Day 4, BSA 25 mg/mL only, no Proclin 300, line of 0.7% Proclin 300
[21] = Day 4, BSA 25 mg/mL only, no Proclin 300, line of 1.4% Proclin 300
[22] = Day 4, BSA 50 mg/mL only, no Proclin 300, line of 0.7% Proclin 300
[23] = Day 4, BSA 50 mg/mL only, no Proclin 300, line of 1.4% Proclin 300
[24] = Day 14, BSA 5 mg/mL only, no Proclin 300, line of 0.7% Proclin 300
[25] = Day 14, BSA 5 mg/mL only, no Proclin 300, line of 1.4% Proclin 300
[26] = Day 14, BSA 25 mg/mL only, no Proclin 300, line of 0.7% Proclin 300
[27] = Day 14, BSA 25 mg/mL only, no Proclin 300, line of 1.4% Proclin 300
[28] = Day 14, BSA 50 mg/mL only, no Proclin 300, line of 0.7% Proclin 300
[29] = Day 14, BSA 50 mg/mL only, no Proclin 300, line of 1.4% Proclin 300

## bovine serum albumin [BSA]
[1]; Day 4, 100 ppm MIT vs no MIT, 50 mg/mL BSA
  % Bias: 7.0%
[1]; [3]
  Creatininase Enzyme Absorbance: 0.998 and 0.974 and 1.006 and 1.008 and 1.031
  MEAN: 0.79
[1]; [4]
  Creatininase Enzyme Absorbance: 0.871 and 0.863 and 0.869 and 0.86 and 0.866
  MEAN: 0.65
[1]; [5]
  Creatininase Enzyme Absorbance: 0.773 and 0.775 and 0.754 and 0.734 and 0.742
  MEAN: 0.54
[1]; Day 14, 5 mg/mL BSA, no MIT (row of 50 ppm MIT)
  MEAN (columns 7-11): 0.90
[1]; Day 14, 5 mg/mL BSA, no MIT (row of 100 ppm MIT)
  MEAN (columns 7-11): 0.87
[1]; Day 14, 25 mg/mL BSA, no MIT (row of 50 ppm MIT)
  MEAN (columns 7-11): 0.70
[1]; Day 14, 25 mg/mL BSA, no MIT (row of 100 ppm MIT)
  MEAN (columns 7-11): 0.72
[1]; Day 14, 50 mg/mL BSA, no MIT (row of 50 ppm MIT)
  MEAN (columns 7-11): 0.55
[1]; Day 14, 50 mg/mL BSA, no MIT (row of 100 ppm MIT)
  MEAN (columns 7-11): 0.56
[1]; Day 14, 50 ppm MIT vs no MIT, 5 mg/mL BSA
  % Bias: −1.7%
[1]; Day 14, 50 ppm MIT vs no MIT, 25 mg/mL BSA
  % Bias: 10.4%
[1]; Day 14, 50 ppm MIT vs no MIT, 50 mg/mL BSA
  % Bias: 3.9%
[1]; [6]
  Creatininase Enzyme Absorbance: 1.13 and 1.104 and 1.098 and 1.12 and 1.117
  MEAN: 0.88
[1]; [7]
  Creatininase Enzyme Absorbance: 1.021 and 0.986 and 0.982 and 1.025 and 0.996
  MEAN: 0.77
[1]; [8]
  Creatininase Enzyme Absorbance: 0.814 and 0.793 and 0.789 and 0.796 and 0.804
  MEAN: 0.57
[1]; Day 14, 100 ppm MIT vs no MIT, 5 mg/mL BSA
  % Bias: 4.1%
[1]; Day 14, 100 ppm MIT vs no MIT, 25 mg/mL BSA
  % Bias: 3.3%
[1]; Day 14, 100 ppm MIT vs no MIT, 50 mg/mL BSA
  % Bias: 6.0%
[1]; [9]
  Creatininase Enzyme Absorbance: 1.155 and 1.123 and 1.105 and 1.133 and 1.156
  MEAN: 0.91
[1]; [10]
  Creatininase Enzyme Absorbance: 0.997 and 0.966 and 0.95 and 0.992 and 0.976
  MEAN: 0.75
[1]; [11]
  Creatininase Enzyme Absorbance: 0.854 and 0.822 and 0.792 and 0.828 and 0.832
  MEAN: 0.60
[1]; days 4 and 14, 5, 25 and 50 mg/mL BSA, with MIT
  absorbance of the creatininase enzyme compared to samples containing 0 mg/mL of BSA: increased absorbance
[1]; days 4 and 14, only BSA, no MIT
  creatininase absorbance, solutions 7-11: increased (or at least maintained)
[1]; days 4 and 14, with MIT
  BSA concentration at which the creatininase absorbance measurement is highest: 5 mg/mL
[2]; [12]
  Absorbance, solutions 7-11: 1.447 and 1.677 and 1.453 and 1.748
  MEAN absorbance, solutions 7-11: 1.51
[2]; [13]
  Absorbance, solutions 7-11: 1.464 and 1.437 and 1.453 and 1.458 and 1.444
  MEAN absorbance, solutions 7-11: 1.40
[2]; [14]
  Absorbance, solutions 7-11: 1.429 and 1.441 and 1.415 and 1.398 and 1.406
  MEAN absorbance, solutions 7-11: 1.37
[2]; [15]
  Absorbance, solutions 7-11: 1.39 and 1.396 and 1.375 and 1.392 and 1.376
  MEAN absorbance, solutions 7-11: 1.34
[2]; [16]
  Absorbance, solutions 7-11: 1.376 and 1.375 and 1.399 and 1.416 and 1.421
  MEAN absorbance, solutions 7-11: 1.35
[2]; [17]
  Absorbance, solutions 7-11: 1.402 and 1.394 and 1.401 and 1.397 and 1.396
  MEAN absorbance, solutions 7-11: 1.35
[2]; [18]
  Absorbance, solutions 7-11: 1.505 and 1.507 and 1.518 and 1.472 and 1.484
  MEAN absorbance, solutions 7-11: 1.45
[2]; [19]
  Absorbance, solutions 7-11: 1.446 and 1.471 and 1.449 and 1.46 and 1.484
  MEAN absorbance, solutions 7-11: 1.42
[2]; [20]
  Absorbance, solutions 7-11: 1.45 and 1.451 and 1.465 and 1.418 and 1.415
  MEAN absorbance, solutions 7-11: 1.40
[2]; [21]
  Absorbance, solutions 7-11: 1.416 and 1.421 and 1.436 and 1.431 and 1.426
  MEAN absorbance, solutions 7-11: 1.38
[2]; [22]
  Absorbance, solutions 7-11: 1.416 and 1.425 and 1.435 and 1.402 and 1.421
  MEAN absorbance, solutions 7-11: 1.38
[2]; [23]
  Absorbance, solutions 7-11: 1.38 and 1.397 and 1.399 and 1.403
  MEAN absorbance, solutions 7-11: 1.35
[2]; [24]
  Absorbance, solutions 7-11: 1.53 and 1.542 and 1.526 and 1.538 and 1.535
  MEAN absorbance, solutions 7-11: 1.49
[2]; [25]
  Absorbance, solutions 7-11: 1.527 and 1.53 and 1.526 and 1.566
  MEAN absorbance, solutions 7-11: 1.49
[2]; [26]
  Absorbance, solutions 7-11: 1.498 and 1.527 and 1.533 and 1.503 and 1.505
  MEAN absorbance, solutions 7-11: 1.47
[2]; [27]
  Absorbance, solutions 7-11: 1.499 and 1.497 and 1.533 and 1.539 and 1.525
  MEAN absorbance, solutions 7-11: 1.47
[2]; [28]
  Absorbance, solutions 7-11: 1.493 and 1.499 and 1.505 and 1.513 and 1.541
  MEAN absorbance, solutions 7-11: 1.46
[2]; [29]
  Absorbance, solutions 7-11: 1.467 and 1.491 and 1.482 and 1.534 and 1.529
  MEAN absorbance, solutions 7-11: 1.46
[2]; days 4 and 14, 5, 25 and 50 mg/mL BSA, with Proclin 300
  absorbance of the sarcosine oxidase enzyme compared to samples containing 0 mg/mL of BSA: increased absorbance
[2]; days 4 and 14, only BSA, no Proclin 300
  sarcosine oxidase absorbance, solutions 7-11: increased (or at least maintained)
